Source: US12077503B2, “Substituted cyclic amides and their use as herbicides” (FMC CORPORATION, priority 2015, dated 2024)

Legend:
Type in all cases: in vivo
[1] = test system: Galium (catchweed bedstraw, Galium aparine); test: Test A postemergence; details: Galium, post-emergence, 240 h, 125 g ai/ha, postemergence, visual injury rating after approximately 10 d; read-out: Galium plant response rating (0 to 100 scale, 0 no effect, 100 complete control)
In short: (§1)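 Preemergence directed soil spray on seeded pots, or postemergence application to plants 2–10 cm, one- to two-leaf. Solvent mixture non-phytotoxic, with surfactant. Scored ~10 d later, visually, 0–100 vs untreated.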

[2] = test system: blackgrass (Alopecurus myosuroides); test: Test A postemergence; details: Alopecurus myosuroides, post-emergence, 240 h, 125 g ai/ha, postemergence, visual injury rating after approximately 10 d; read-out: Blackgrass plant response rating (0 to 100 scale, 0 no effect, 100 complete control)
In short: as §1

[3] = test system: wheat (Triticum aestivum); test: Test A postemergence; details: Triticum aestivum, post-emergence, 240 h, 125 g ai/ha, postemergence, visual injury rating after approximately 10 d; read-out: Wheat plant response rating (0 to 100 scale, 0 no effect, 100 complete control)
In short: as §1

[4] = test system: Kochia (Kochia scoparia); test: Test A postemergence; details: Bassia scoparia, post-emergence, 240 h, 125 g ai/ha, postemergence, visual injury rating after approximately 10 d; read-out: Kochia plant response rating (0 to 100 scale, 0 no effect, 100 complete control)
In short: as §1

[5] = test system: giant foxtail (Setaria faberii); test: Test A postemergence; details: Setaria faberi, post-emergence, 240 h, 125 g ai/ha, postemergence, visual injury rating after approximately 10 d; read-out: Foxtail, Giant plant response rating (0 to 100 scale, 0 no effect, 100 complete control)
In short: as §1

[6] = test system: corn (Zea mays); test: Test A postemergence; details: Zea mays, post-emergence, 240 h, 125 g ai/ha, postemergence, visual injury rating after approximately 10 d; read-out: Corn plant response rating (0 to 100 scale, 0 no effect, 100 complete control)
In short: as §1

[7] = test system: pigweed (Amaranthus retroflexus); test: Test A postemergence; details: Amaranthus retroflexus, post-emergence, 240 h, 125 g ai/ha, postemergence, visual injury rating after approximately 10 d; read-out: Pigweed plant response rating (0 to 100 scale, 0 no effect, 100 complete control)
In short: as §1

[8] = test system: ryegrass, Italian (Italian ryegrass, Lolium multiflorum); test: Test A postemergence; details: Lolium multiflorum, post-emergence, 240 h, 125 g ai/ha, postemergence, visual injury rating after approximately 10 d; read-out: Ryegrass, Italian plant response rating (0 to 100 scale, 0 no effect, 100 complete control)
In short: as §1

[9] = test system: ragweed (common ragweed, Ambrosia elatior); test: Test A postemergence; details: Ambrosia artemisiifolia, post-emergence, 240 h, 125 g ai/ha, postemergence, visual injury rating after approximately 10 d; read-out: Ragweed plant response rating (0 to 100 scale, 0 no effect, 100 complete control)
In short: as §1

[10] = test system: barnyardgrass (Echinochloa crus-galli); test: Test A postemergence; details: Echinochloa crus-galli, post-emergence, 240 h, 125 g ai/ha, postemergence, visual injury rating after approximately 10 d; read-out: Barnyardgrass plant response rating (0 to 100 scale, 0 no effect, 100 complete control)
In short: as §1

[11] = test system: Kochia (Kochia scoparia); test: Test A preemergence; details: Bassia scoparia, pre-emergence, 240 h; for pest or weed control at 125 g/ha: 125 g ai/ha, preemergence, 0 to 100 scale where 0 is no effect and 100 is complete control, read-out: Kochia plant response rating; for pest or weed control at 500 g/ha: 500 g ai/ha, Preemergence, visual injury vs untreated controls after approximately 10 d, read-out: Kochia plant response rating (0 to 100 scale where 0 is no effect and 100 is complete control)
In short: as §1

[12] = test system: giant foxtail (Setaria faberii); test: Test A preemergence; details: Setaria faberi, pre-emergence, 240 h; for pest or weed control at 125 g/ha: 125 g ai/ha, preemergence, 0 to 100 scale where 0 is no effect and 100 is complete control, read-out: Foxtail, Giant plant response rating; for pest or weed control at 500 g/ha: 500 g ai/ha, Preemergence, visual injury vs untreated controls after approximately 10 d, read-out: Foxtail, Giant plant response rating (0 to 100 scale where 0 is no effect and 100 is complete control)
In short: as §1

[13] = test system: pigweed (Amaranthus retroflexus); test: Test A preemergence; details: Amaranthus retroflexus, pre-emergence, 240 h; for pest or weed control at 125 g/ha: 125 g ai/ha, preemergence, 0 to 100 scale where 0 is no effect and 100 is complete control, read-out: Pigweed plant response rating; for pest or weed control at 500 g/ha: 500 g ai/ha, Preemergence, visual injury vs untreated controls after approximately 10 d, read-out: Pigweed plant response rating (0 to 100 scale where 0 is no effect and 100 is complete control)
[14] = test system: ryegrass, Italian (Italian ryegrass, Lolium multiflorum); test: Test A preemergence; details: Lolium multiflorum, pre-emergence, 240 h; for pest or weed control at 125 g/ha: 125 g ai/ha, preemergence, 0 to 100 scale where 0 is no effect and 100 is complete control, read-out: Ryegrass, Italian plant response rating; for pest or weed control at 500 g/ha: 500 g ai/ha, Preemergence, visual injury vs untreated controls after approximately 10 d, read-out: Ryegrass, Italian plant response rating (0 to 100 scale where 0 is no effect and 100 is complete control)
In short: as §1

[15] = test system: ragweed (common ragweed, Ambrosia elatior); test: Test A preemergence; details: Ambrosia artemisiifolia, pre-emergence, 240 h; for pest or weed control at 125 g/ha: 125 g ai/ha, preemergence, 0 to 100 scale where 0 is no effect and 100 is complete control, read-out: Ragweed plant response rating; for pest or weed control at 500 g/ha: 500 g ai/ha, Preemergence, visual injury vs untreated controls after approximately 10 d, read-out: Ragweed plant response rating (0 to 100 scale where 0 is no effect and 100 is complete control)
In short: as §1

[16] = test system: barnyardgrass (Echinochloa crus-galli); test: Test A preemergence; details: Echinochloa crus-galli, pre-emergence, 240 h; for pest or weed control at 125 g/ha: 125 g ai/ha, preemergence, 0 to 100 scale where 0 is no effect and 100 is complete control, read-out: Barnyardgrass plant response rating; for pest or weed control at 500 g/ha: 500 g ai/ha, Preemergence, visual injury vs untreated controls after approximately 10 d, read-out: Barnyardgrass plant response rating (0 to 100 scale where 0 is no effect and 100 is complete control)
In short: as §1

Row | SMILES | pest or weed control at 125 g/ha [1] | pest or weed control at 125 g/ha [2] | plant injury at 125 g/ha [3] | pest or weed control at 125 g/ha [4] | pest or weed control at 125 g/ha [5] | plant injury at 125 g/ha [6] | pest or weed control at 125 g/ha [7] | pest or weed control at 125 g/ha [8] | pest or weed control at 125 g/ha [9] | pest or weed control at 125 g/ha [10] | pest or weed control at 125 g/ha [11] | pest or weed control at 500 g/ha [11] | pest or weed control at 125 g/ha [12] | pest or weed control at 500 g/ha [12] | pest or weed control at 125 g/ha [13] | pest or weed control at 500 g/ha [13] | pest or weed control at 125 g/ha [14] | pest or weed control at 500 g/ha [14] | pest or weed control at 125 g/ha [15] | pest or weed control at 500 g/ha [15] | further results
1 | Cc1c(F)ccc([C@H]2CN(C)C(=O)[C@@H]2C(=O)Nc2ccc(F)c(F)c2F)c1F [Compound 836] | 50% | 70% | 40% | 50% | 90% | 70% | 30% | 60% | 0% | 100% | 90% | 90% | 90% | 90% | 30% | 60% | 90% | 80% | 0% | 0% | pest or weed control at 125 g/ha [16]: 90%; pest or weed control at 500 g/ha [16]: 90%
2 | Cc1c(F)ccc([C@H]2CN(C)C(=O)[C@@H]2C(=O)Nc2ccccc2C(F)(F)F)c1F [Compound 841] | 40% | 30% | 0% | 30% | 90% | 0% | 0% | 20% | 0% | 80% | 40% | 60% | 90% | 90% | 0% | 30% | 0% | 40% | 0% | 0% | pest or weed control at 125 g/ha [16]: 90%; pest or weed control at 500 g/ha [16]: 100%
3 | Cc1c(F)ccc([C@H]2CN(C)C(=O)[C@@H]2C(=O)Nc2ccccc2S(C)(=O)=O)c1F [Compound 842] | 50% | 30% | 30% | 30% | 90% | 20% | 30% | 20% | 30% | 90% | 80% | 80% | 90% | 100% | 40% | 70% | 30% | 60% | 70% | 80% | pest or weed control at 125 g/ha [16]: 90%; pest or weed control at 500 g/ha [16]: 90%
4 | CN1CC(c2cccc(C=O)c2)C(C(=O)Nc2ccccc2F)C1=O (stereo not drawn) [Compound 844] | 0% | 0% | 0% | 0% | 0% | 0% | 0% | 0% | 0% | 0% | 0% | 0% | 0% | 30% | 0% | 0% | 0% | 0% | 0% | 0% | pest or weed control at 125 g/ha [16]: 0%; pest or weed control at 500 g/ha [16]: 20%
5 | O=C1NCC(c2cccc(I)c2)C1C(=O)Nc1ccccc1F (stereo not drawn) [Compound 845] | 20% | 40% | 0% | 0% | 90% | 30% | 0% | 30% | 0% | 80% | 40% | 90% | 80% | 90% | 0% | 0% | 0% | 30% | 0% | 0% | pest or weed control at 125 g/ha [16]: 90%; pest or weed control at 500 g/ha [16]: 90%
6 | CC(C)(C)c1ccc([C@H]2CNC(=O)[C@@H]2C(=O)Nc2cccc(F)c2F)cc1 [Compound 847] | 0% | 0% | 0% | 0% | 0% | 0% | 0% | 0% | 0% | 0% | 0% | 0% | 0% | 50% | 0% | 0% | 0% | 0% | 0% | 0% | pest or weed control at 125 g/ha [16]: 0%; pest or weed control at 500 g/ha [16]: 60%
